These results are taken from patent US6071946A, “Tricyclic urea compounds” (Adir et Compagnie, priority 1994, dated 2000).

Assay [1] relates to C3H/He mice. Nature of the assay: Free exploratory test in C3H/He mice. Particulars: oral. It counts as in vivo. On the procedure:
Effects in the free exploratory test in C3H/He mice
Behavior was assessed in a box subdivided into six equal square exploratory units, which were interconnected by small doors. It could be divided in half lengthwise by closing partitions. Twenty-four hours before the test, each animal was randomly placed in one half of the apparatus, with the temporary partitions in place, in order to become familiarized with it. […]
numbers of attempts towards the unfamiliar compartment latency of the first entry into the unfamiliar compartment time spent in the unfamiliar compartment locomotion in the unfamiliar compartment number of rears in the unfamiliar compartment locomotion in the familiar compartment number of rears in the familiar compartment
Compounds were orally administered at doses of […] (in 1% HEC), 40 minutes before the test.
The […] group received the vehicle under the same conditions.

Assay [2] can be described thus: Foregoing pharmacological Examples (A to I), carbamides or ureas substituted for the compounds of Examples 119 and 131. Particulars: in place of the compounds of Examples 119 and 131.
In assay [3] the target is T1, melatonin receptors (Ovis aries, UniProt P48040).
T1 construct: Sheep pars tuberalis membranes are prepared and used as target tissue; from tissue; host or cells: sheep pars tuberalis membranes
T1 sequence (P48040 whole entry): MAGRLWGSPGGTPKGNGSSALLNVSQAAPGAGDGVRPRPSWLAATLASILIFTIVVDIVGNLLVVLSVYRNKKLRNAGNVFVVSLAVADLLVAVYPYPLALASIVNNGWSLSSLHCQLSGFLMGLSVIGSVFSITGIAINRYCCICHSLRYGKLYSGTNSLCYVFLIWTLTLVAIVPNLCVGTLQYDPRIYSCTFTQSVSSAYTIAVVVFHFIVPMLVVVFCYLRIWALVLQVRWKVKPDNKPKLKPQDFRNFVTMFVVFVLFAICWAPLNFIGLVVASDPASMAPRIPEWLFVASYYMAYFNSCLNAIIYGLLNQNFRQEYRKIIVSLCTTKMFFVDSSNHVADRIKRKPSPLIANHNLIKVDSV
As to the kind of experiment: Binding to melatonin receptors, sheep pars tuberalis cells (competition with 2-iodo-melatonin). The conditions noted are these: sheep pars tuberalis membranes. The method, then: B1) Study on Sheep Pars Tuberalis Cells
Studies of the binding of the compounds of the invention to melatonin receptors were carried out according to conventional techniques on sheep pars tuberalis cells. The pars tuberalis of the adenohypophysis is in fact characterized, in mammals, by a high density of melatonin receptors (Journal of Neuroendocrinology, 1, pp 1-4, 1989).
1) Sheep pars tuberalis membranes are prepared and used as target tissue in saturation experiments in order to determine the binding capacities and affinities for 2-(^125 I) iodomelatonin.
2) Sheep pars tuberalis membranes are used as target tissue, with the various compounds to be tested, in competitive binding experiments with respect to 2-iodo-melatonin.
Each experiment is carried out in triplicate and a range of different concentrations is tested for each compound.
The results make it possible to determine, after statistical treatment, the binding affinities of the compound tested.

[4] abbreviates: 40 minutes before test, statistically significant for the 3 tested doses.

Regarding `CC(=O)NCCc1coc2ccc3c(c12)CCCO3` [Example 131, N-[2-(8,9-Dihydro-7H-furo[3,2-f]chromen-1-yl)ethyl]acetamide], in assay [1] (setting [4]), the “latency of the first entry into the unfamiliar compartment” value was “dose-dependently reduced”, the “locomotion in the unfamiliar compartment” value is reported as “increased the locomotion in the unfamiliar compartment” and the “numbers of attempts towards the unfamiliar compartment” value was “dose-dependently reduced”. Further, the “number of rears in the unfamiliar compartment” value in assay [1] (at 25 mg/kg (highest dose)) is on record as “significantly increased the number of rears in the unfamiliar compartment”. The “time spent in the unfamiliar compartment” value in assay [1] (at 5 and 25 mg/kg) is “significantly increased the time spent in the unfamiliar compartment”.
Take `CNC(=O)NCCc1cccc2ccc3c(c12)CC(C)O3` (stereo not shown) [Example 120, N-[2-(2,3-DIHYDRO-2-METHYL-1-NAPHTHO[2,1-b]FURAN-4-YL)ETHYL]-N'-METHYLUREA]: the “results in the foregoing pharmacological Examples, compared with the compounds of Examples 119 and 131” value in assay [2] is “approximately equally statistically-significant results”.
With `CC(=O)NCCc1cccc2ccc3c(c12)CC(C)O3` (stereo not shown) [Example 119, 2,3-DIHYDRO-2-METHYL-4-(2-ACETAMIDOETHYL)1-NAPHTHO[2,1-b]-FURAN], the “affinity for melatonin receptors (in words)” value in assay [3] is given as “extremely powerful affinity”.
